According to patent US12012396B2, “HDAC inhibitor solid state forms” (Viracta Subsidiary, Inc., priority 2020, dated 2024):
Entries after “also recorded” stand apart in the source; their conditions may differ. Where a name gives a salt, the structure may show the parent alone.

Columns and labels:
Format in all cases: physicochemical
[1] = Thermodynamic aqueous solubility; conditions: for pH of saturated solution: water, after 24 hours equilibration
Method: Aqueous solubility was determined by suspending sufficient compound in 0.5 ml deionized water to give a maximum final concentration of 40 mg/mi of the parent free-form of the compound. The suspension was equilibrated at 25° C., on a Heidolph plate shaker set to 750 rpm for 24 hours. After equilibration, the appearance was noted and the pH of the saturated solution was measured. Samples forming suspensions were centrifuged for 4 min at 13,500 rpm. Samples were then filtered through a glass fiber C filter (particle retention 1.2 μm), before dilution with H2O as appropriate.
Quantitation was by HPLC (see Table 2 for parameters) with reference to a standard solution of approximately 0.15 mg/ml in DMSO. Different volumes of the standard, diluted and undiluted sample solutions were injected. The solubility was calculated using the peak areas determined by integration of the peak found at the same retention time as the principal peak in the standard injection. Analysis was performed on an AgilentHPl 100/Infinity II 1260 series system equipped with a diode array detector and using OpenLAB software.

[2] = Static storage stability at elevated temperature/humidity (XRPD, HPLC purity)
Method: XRPD diffractograms were collected on a Bruker D8 diffractometer using Cu Kα, radiation (40 kV, 40 mA) and a 0-20 goniometer fitted with a Ge monochromator. The incident beam passes through a 2.0 mm divergence slit followed by a 0.2 mm anti-scatter slit and knife edge. The diffracted beam passes through an 8.0 mm receiving slit with 2.5° Soller slits followed by the Lynxeye Detector. The software used for data collection and analysis was Diffrac Plus XRD Commander and Diffrac Plus EVA respectively.
XRPD diffractograms were collected on a PANalytical Empyrean diffractometer using Cu Kα, radiation (45 kV, 40 mA) in transmission geometry. A 0.5° slit, 4 mm mask and 0.04 rad Soller slits with a focusing mirror were used on the incident beam. A PIXcel3D detector, placed on the diffracted beam, was fitted with a receiving slit and 0.04 rad Soller slits. The software used for data collection was X'Pert Data Collector using X'Pert Operator Interface. The data were analyzed and presented using Diffrac Plus EVA or HighScore Plus.
Purity analysis was performed on an AgilentHP1100/Infinity 111260 series system equipped with a diode array detector and using OpenLAB software.

[3] = Gravimetric Vapour Sorption (GVS); conditions: for XRPD post-GVS: residue after GVS
Method: Sorption isotherms were obtained using a SMS DVS Intrinsic moisture sorption analyser, controlled by DVS Intrinsic Control software. The sample temperature was maintained at 25° C. by the instrument controls. The humidity was controlled by mixing streams of dry and wet nitrogen, with a total flow rate of 200 ml/min. The relative humidity was measured by a calibrated Rotronic probe (dynamic range of 1.0-100% RH), located near the sample. The weight change, (mass relaxation) of the sample as a function of % RH was constantly monitored by a microbalance (accuracy ±0.005 mg). Typically, 20-30 mg of sample was placed in a tared mesh stainless steel basket under ambient conditions. The sample was loaded and unloaded at 40% RH and 25° C. (typical room conditions). A moisture sorption isotherm was performed as outlined below (2 scans per complete cycle). The standard isotherm was performed at 25° C. at 10% RH intervals over a 0-90% RH range. Typically, a double cycle (4 scans) was carried out. Data analysis was carried out within Microsoft Excel using the DVS Analysis Suite. [table]

physchem = assay: physchem
Description: There was insufficient residue to characterize these further.

[4] = 7 days / 1 week at 25° C./97% RH
[5] = 7 days / 1 week at 40° C./75% RH

Row | Structure (SMILES) | Solid form by XRPD after static storage [2, 4] | Solid form by XRPD after static storage [2, 5] | XRPD post-GVS [3] | also measured
1 | O=C(NO)c1cnc(N2C[C@@H]3[C@H](C2)[C@H]3NCc2ccc3cc(F)ccc3n2)nc1 [Compound 1, N-hydroxy-2-{6-[(6-fluoro-quinolin-2-ylmethyl)-amino]-3-aza-bicyclo[3.1.0]hex-3-yl}pyrimidine-5-carboxamide] |  |  |  | Solubility in water ([1]; deionized water, 25° C., 24 hours, maximum final concentration 40 mg/ml, listed as Free base): essentially insoluble
2 | O=C(NO)c1cnc(N2C[C@@H]3[C@H](C2)[C@H]3NCc2ccc3cc(F)ccc3n2)nc1 [Free Base Form A, N-hydroxy 2-{6-[(6-fluoro-quinolin-2-ylmethyl)-amino]-3-aza-bicyclo[3.1.0]hex-3-yl}pyrimidine-5-carboxamide] |  |  |  | pH of saturated solution [1]: (pH = 7.4)
3 | O=C(NO)c1cnc(N2C[C@@H]3[C@H](C2)[C@H]3NCc2ccc3cc(F)ccc3n2)nc1 [Free Base Form B, N-hydroxy 2-{6-[(6-fluoro-quinolin-2-ylmethyl)-amino]-3-aza-bicyclo[3.1.0]hex-3-yl}pyrimidine-5-carboxamide] |  |  |  | pH of saturated solution [1]: (pH = 7.4)
4 | O=C(NO)c1cnc(N2C[C@@H]3[C@H](C2)[C@H]3NCc2ccc3cc(F)ccc3n2)nc1 [Mesylate Form 2, N-hydroxy 2-{6-[(6-fluoro-quinolin-2-ylmethyl)-amino]-3-aza-bicyclo[3.1.0]hex-3-yl}pyrimidine-5-carboxamide] | unchanged; also recorded: Mesylate Form 2 | unchanged; also recorded: Mesylate Form 2 | unchanged; also recorded: XRPD Post-GVS: Mesylate Form 2 | HPLC purity after static storage [2, 4]: 99.5%; Solid form by XRPD after static storage ([2]; 7 days / 1 week at 25° C./97% RH, listed as Form 2): stable; HPLC purity after static storage [2, 5]: 99.5%; Solid form by XRPD after static storage ([2]; 7 days / 1 week at 40° C./75% RH, listed as Form 2): stable
5 | O=C(NO)c1cnc(N2C[C@@H]3[C@H](C2)[C@H]3NCc2ccc3cc(F)ccc3n2)nc1 [Mesylate Form 3, N-hydroxy 2-{6-[(6-fluoro-quinolin-2-ylmethyl)-amino]-3-aza-bicyclo[3.1.0]hex-3-yl}pyrimidine-5-carboxamide] | unchanged; also recorded: Mesylate Form 3 | conversion to Mesylate Form 5 | XRPD Post-GVS: Poorly crystalline broad | Solid form by XRPD after static storage ([2]; 7 days / 1 week at 25° C./97% RH, listed as Form 3): remained as Mesylate Form 3; Solid form by XRPD after static storage ([2]; 7 days / 1 week at 40° C./75% RH, listed as Form 3): convert to Mesylate Form 5; Water content after desorption ([3]; desorption cycle 1 down to 30% RH): 24.30%; Water loss, desorption cycle 1 ([3]; from 30-20% RH): Desorption Cycle 1 22%; Solubility residue pattern in FaSSGF (physchem): new solubility residue patterns
6 | O=C(NO)c1cnc(N2C[C@@H]3[C@H](C2)[C@H]3NCc2ccc3cc(F)ccc3n2)nc1 [Mesylate Form 4, N-hydroxy 2-{6-[(6-fluoro-quinolin-2-ylmethyl)-amino]-3-aza-bicyclo[3.1.0]hex-3-yl}pyrimidine-5-carboxamide] | conversion to Mesylate Form 1; also recorded: converted to Mesylate Form 1 | mixture of Mesylate Form 1 and Form 4 | conversion to Mesylate Form 1; also recorded: Post-GVS: Converted to Mesylate Form 1 by XRPD | Hysteresis in GVS ([3]; RH range of hysteresis): displaying hysteresis loop; Water content loss, desorption cycle 1 ([3]; between 20 to 10% RH): ~9%
7 | O=C(NO)c1cnc(N2C[C@@H]3[C@H](C2)[C@H]3NCc2ccc3cc(F)ccc3n2)nc1 [Mesylate Form 5, N-hydroxy 2-{6-[(6-fluoro-quinolin-2-ylmethyl)-amino]-3-aza-bicyclo[3.1.0]hex-3-yl}pyrimidine-5-carboxamide] | remained as Mesylate Form 5; also recorded: Unchanged: Mesylate Form 5 | remained as Mesylate Form 5; also recorded: Unchanged: Mesylate Form 5 | unchanged; also recorded: stable; also recorded: XRPD Post-GVS: Mesylate Form 5 | Solubility residue pattern in FaSSGF (physchem): new solubility residue patterns
8 | O=C(NO)c1cnc(N2C[C@@H]3[C@H](C2)[C@H]3NCc2ccc3cc(F)ccc3n2)nc1 [Mesylate Form 6, N-hydroxy 2-{6-[(6-fluoro-quinolin-2-ylmethyl)-amino]-3-aza-bicyclo[3.1.0]hex-3-yl}pyrimidine-5-carboxamide] | converted to Mesylate Form 1 | converted to Mesylate Form 1 |  | 
9 | O=C(NO)c1cnc(N2C[C@@H]3[C@H](C2)[C@H]3NCc2ccc3cc(F)ccc3n2)nc1 [Mesylate Form 7, N-hydroxy 2-{6-[(6-fluoro-quinolin-2-ylmethyl)-amino]-3-aza-bicyclo[3.1.0]hex-3-yl}pyrimidine-5-carboxamide] | converted to Mesylate Form 1 | converted to Mesylate Form 1 |  | 
10 | O=C(NO)c1cnc(N2C[C@@H]3[C@H](C2)[C@H]3NCc2ccc3cc(F)ccc3n2)nc1 [Mesylate Form 8, N-hydroxy 2-{6-[(6-fluoro-quinolin-2-ylmethyl)-amino]-3-aza-bicyclo[3.1.0]hex-3-yl}pyrimidine-5-carboxamide] | converted to Mesylate Form 1 | converted to Mesylate Form 1 |  | 
11 | O=C(NO)c1cnc(N2C[C@@H]3[C@H](C2)[C@H]3NCc2ccc3cc(F)ccc3n2)nc1 [Mesylate Form 9, N-hydroxy 2-{6-[(6-fluoro-quinolin-2-ylmethyl)-amino]-3-aza-bicyclo[3.1.0]hex-3-yl}pyrimidine-5-carboxamide] | Poorly crystalline - Mesylate Form 1 | Mesylate Form 1 |  | Appearance after static storage ([2]; 1 week at 25° C./97% RH): Sample appeared wet - white solid still present; Appearance after static storage ([2]; 1 week at 40° C./75% RH): color change to yellow; also recorded: Sample appeared ‘damp’ - yellow solid present
12 | O=C(NO)c1cnc(N2C[C@@H]3[C@H](C2)[C@H]3NCc2ccc3cc(F)ccc3n2)nc1 [amorphous mesylate salt, N-hydroxy 2-{6-[(6-fluoro-quinolin-2-ylmethyl)-amino]-3-aza-bicyclo[3.1.0]hex-3-yl}pyrimidine-5-carboxamide] |  |  |  | Solid form by XRPD after static storage ([2]; 7 days / 1 week at 25° C./97% RH, listed as amorphous): largely amorphous; Solid form by XRPD after static storage ([2]; 7 days / 1 week at 40° C./75% RH, listed as amorphous): largely amorphous
